Source: patent publication EP4813384A1, “COMBINED PHARMACEUTICAL PREPARATION OF TAFAMIDIS OR PHARMACEUTICALLY ACCEPTABLE SALT THEREOF AND PROLINE HYDROXYLASE INHIBITOR” (Huaya Jiyuan (Shenzhen) Pharmaceutical Co., Ltd., priority 2024, dated 2025)

Legend:
[1] = tested on: erythropoietin (EPO) gene expression; test: Real-time reverse transcription quantitative PCR (qRT-PCR) assay of EPO gene expression; assay type: cell-based; conditions: HepG2 cells, 24 hours, relative to vehicle
Protocol: Experimental method: HepG2 hepatocellular carcinoma cells are seeded into a 12-well plate. After 24 hours, 10 µM roxadustat, 1 µM tafamidis, 5 µM tafamidis, 10 µM tafamidis, and 20 µM tafamidis, a combination of 10 µM roxadustat and 1 µM tafamidis, a combination of 10 µM roxadustat and 5 µM tafamidis, a combination of 10 µM roxadustat and 10 µM tafamidis, and a combination of 10 µM roxadustat and 20 µM tafamidis, are added separately, and the cells are co-incubated with the compounds for 24 hours. No treatment is applied to the vehicle group. RNA is extracted using a TRIZOL reagent. cDNA transcription is performed using an All-in-one™ First-Strand cDNA Synthesis Kit (for specific operating procedures, see the manufacturer's instructions). A SYBR reagent is used for fluorescence signal detection, and GAPDH is used as an internal control. The qRT-PCR primers are as follows: • GAPDH_fwd, […]; • GAPDH_rev, TGGTGAAGACGCCAGTGGA; • EPO_fwd, […]; • EPO_rev, […].
The test results are shown in FIG. 2: relative to the vehicle (control group), monotherapy with 10 µM roxadustat upregulates erythropoietin (EPO) gene expression by 1.5-fold, while monotherapy with 20 µM tafamidis upregulates EPO gene expression by 1-fold. […] Such activation may have potential therapeutic value for treating diseases such as ischemic diseases or anemia. Statistical analysis is performed using SPSS software. […]

[2] = tested on: rats with renal anemia; test: Cisplatin-induced renal anemia rat model; assay type: in vivo, Male Sprague-Dawley (SD) rats; conditions: 5 mg/kg roxadustat
Protocol: Male Sprague-Dawley (SD) rats are allowed a one-week acclimation period, after which cisplatin (6 mg/kg) is administered through tail vein injection. A second injection is given one week later. Two weeks after the first administration, successful establishment of a renal disease model is confirmed by measuring serum creatinine and urea levels. The successfully modeled rats are randomly divided into three groups: cisplatin group (n = 6), 5 mg/kg roxadustat group (n = 6), and 5 mg/kg roxadustat + 10 mg/kg tafamidis group (n = 6), with continuous administration for 4 weeks. A solvent is administered to the normal control group (n = 7) and the cisplatin group based on the same drug administration regimen. After drug administration, blood analysis is performed once per week using a Mindray automated hematology analyzer (BC-5150). After sample collection, the rats are euthanized. Statistical significance is determined by one-way analysis of variance (ANOVA), and then a Dunnett's test is performed for comparison with the cisplatin group (*P < 0.05, **P < 0.01, ***P < 0.001).

[3] = target: T1, HIF-2α (Homo sapiens, UniProt Q99814); test: Luciferase reporter gene assay (HRE-driven luciferase in stably transfected 786-O cells); assay type: cell-based; conditions: 786-O HRE-Luc cells, 24 hours, relative to blank control
T1 construct: 786-O is a renal carcinoma cell line that predominantly expresses HIF-2α; endogenous in cells; host or cells: 786-O cells stably transfected with HRE-driven luciferase reporter
T1 sequence (Q99814 whole entry): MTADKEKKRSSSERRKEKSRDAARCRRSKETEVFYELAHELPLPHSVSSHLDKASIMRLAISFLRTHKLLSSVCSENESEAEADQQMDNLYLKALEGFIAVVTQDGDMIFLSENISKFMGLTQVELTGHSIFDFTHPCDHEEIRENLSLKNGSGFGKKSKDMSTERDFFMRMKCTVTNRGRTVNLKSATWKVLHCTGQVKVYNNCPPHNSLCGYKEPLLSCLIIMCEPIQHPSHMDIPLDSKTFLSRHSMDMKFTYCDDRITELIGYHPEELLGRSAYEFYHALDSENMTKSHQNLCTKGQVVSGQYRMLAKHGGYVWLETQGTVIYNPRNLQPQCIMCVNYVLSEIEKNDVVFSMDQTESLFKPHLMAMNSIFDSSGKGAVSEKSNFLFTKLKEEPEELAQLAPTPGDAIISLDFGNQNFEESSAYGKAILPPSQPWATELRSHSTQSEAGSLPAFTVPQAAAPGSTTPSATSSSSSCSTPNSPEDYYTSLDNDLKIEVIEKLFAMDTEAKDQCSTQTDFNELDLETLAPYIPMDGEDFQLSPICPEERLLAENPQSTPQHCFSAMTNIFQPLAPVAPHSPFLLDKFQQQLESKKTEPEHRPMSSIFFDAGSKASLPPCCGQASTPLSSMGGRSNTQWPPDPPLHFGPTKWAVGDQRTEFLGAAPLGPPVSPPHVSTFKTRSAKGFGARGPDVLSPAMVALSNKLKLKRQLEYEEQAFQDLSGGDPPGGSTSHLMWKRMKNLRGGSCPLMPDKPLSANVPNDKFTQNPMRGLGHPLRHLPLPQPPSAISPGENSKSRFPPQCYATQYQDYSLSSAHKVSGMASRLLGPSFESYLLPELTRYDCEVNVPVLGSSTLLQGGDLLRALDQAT
T1 sequence (P27540 whole entry partner): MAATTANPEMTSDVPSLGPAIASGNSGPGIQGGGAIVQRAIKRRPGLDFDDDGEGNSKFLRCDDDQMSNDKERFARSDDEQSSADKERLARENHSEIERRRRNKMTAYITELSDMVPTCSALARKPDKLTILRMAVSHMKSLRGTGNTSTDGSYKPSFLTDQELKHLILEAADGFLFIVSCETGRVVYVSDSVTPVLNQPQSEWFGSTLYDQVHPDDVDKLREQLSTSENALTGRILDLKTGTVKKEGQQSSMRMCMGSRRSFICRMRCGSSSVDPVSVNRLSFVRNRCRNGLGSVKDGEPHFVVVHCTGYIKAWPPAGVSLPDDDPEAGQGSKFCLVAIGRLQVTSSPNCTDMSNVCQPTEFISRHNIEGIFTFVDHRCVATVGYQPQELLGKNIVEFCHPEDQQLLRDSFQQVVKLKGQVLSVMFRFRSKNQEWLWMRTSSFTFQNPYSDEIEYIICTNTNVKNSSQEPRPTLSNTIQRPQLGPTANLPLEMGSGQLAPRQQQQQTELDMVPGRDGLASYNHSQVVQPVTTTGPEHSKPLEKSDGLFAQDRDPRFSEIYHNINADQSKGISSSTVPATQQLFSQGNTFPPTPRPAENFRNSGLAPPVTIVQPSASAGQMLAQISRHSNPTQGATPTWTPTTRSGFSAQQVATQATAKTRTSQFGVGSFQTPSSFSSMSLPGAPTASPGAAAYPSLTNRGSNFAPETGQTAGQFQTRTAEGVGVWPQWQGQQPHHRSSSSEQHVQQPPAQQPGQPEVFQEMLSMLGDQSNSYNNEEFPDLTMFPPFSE
Description: Experimental principles: 786-O is a renal carcinoma cell line that predominantly expresses HIF-2α and lacks functional HIF-1α. This characteristic makes 786-O cells an ideal model for studying HIF-2α transcriptional activity and related signaling pathways. In the luciferase reporter gene assay, a 786-O monoclonal cell line that stably expresses hypoxia response element (HRE)-driven luciferase (Luc) activity is obtained through puromycin selection. The HIF-2α agonist promotes dimerization of HIF-2α and HIF-β, and activates an HRE promoter. By measuring fluorescence intensity, luciferase activity can be determined, thereby assessing the ability of the HIF-2α agonist to promote transcription.
Experimental method: A total of 6000 stably transfected 786-O cells stably containing HRE and Luc sequences are seeded in each well of a 96-well plate, and 100 µL of RPMI-1640 culture medium containing 10% fetal bovine serum is added to each well. After 24 hours, a compound at a corresponding concentration is added to each well. A blank group is set as a control. Only a DMSO solvent is added in the well of the blank group. For initial compound screening, both tafamidis and tafamidis meglumine are tested at two concentrations: 2 µM and 20 µM. For concentration-gradient determination, each concentration is tested in triplicate. After co-incubation for 24 hours, the culture medium is discarded, and 20 µL of firefly luciferase reporter gene cell lysis buffer (RG126M, Beyotime) is added to each well. The 96-well plate is shaken on a microplate shaker for 10 minutes. After shaking, 10 µL of lysate is transferred into a white opaque plate, and then 10 µL of Steady-Lumi™ firefly luciferase assay reagent (RG058S, Beyotime) is added to each well. Finally, luminescence is measured using a microplate reader (Agilent Synergy Neo2). E20 represents the effect of the compound at a 20 µM concentration, and is calculated as: E20 = fluorescence value of the 20 µM well ÷ fluorescence value of the blank control × 100%. E2 represents the effect of the compound at a 2 µM concentration, and is calculated as: E2 = fluorescence value of the 2 µM well ÷ fluorescence value of the blank control × 100%. EC50 is the compound concentration at which the agonistic efficacy is increased by 50% relative to the blank control. […] The maximum activation percentage (Emax) of an agonist refers to a ratio, expressed as a percentage, of the fluorescence value corresponding to the maximal effect (observed maximal response) induced when the agonist concentration reaches receptor-binding saturation in a particular receptor system, to the fluorescence value of the receptor system in the absence of agonist. […]

| SMILES | upregulates erythropoietin (EPO) gene expression ([1]; 10 µM roxadustat monotherapy) | Hematocrit ([2]; Week 4, n = 6) | Hemoglobin concentration ([2]; Week 4, n = 6) | Red blood cell count ([2]; Week 4, n = 6) | kidneys appear red (gross observation of kidney tissues) ([2]; group n = 6) | agonistic efficacy at a 2 µM concentration (E2) [3] | agonistic efficacy at a 20 µM concentration (E20) [3] | upregulates EPO gene expression ([1]; 20 µM tafamidis monotherapy) |
| --- | --- | --- | --- | --- | --- | --- | --- | --- |
| Cc1nc(C(=O)NCC(=O)O)c(O)c2ccc(Oc3ccccc3)cc12 [roxadustat] | 1.5 fold | 52.2 ± 1.3% | 143.3 ± 4.1 g/L | 7.03 ± 0.40 ×10^12 cells/L | 3 rats | – | – | – |
| O=C(O)c1ccc2nc(-c3cc(Cl)cc(Cl)c3)oc2c1 [tafamidis meglumine] | – | – | – | – | – | 122% | 223% | – |
| O=C(O)c1ccc2nc(-c3cc(Cl)cc(Cl)c3)oc2c1 [tafamidis, 2-(3,5-dichlorophenyl)-1,3-benzoxazole-6-carboxylic acid] | – | – | – | – | – | 142% | 207% | 1 fold |
